Activity and EC50 data for three compounds are collected here from ChEMBL document CHEMBL1149732, “New bioactive metabolites from a freshwater isolate of the fungus Kirschsteiniothelia sp” (1992).

Structures are written as SMILES. Values after ≈ are worked out from the molar mass of the structure shown. Active and inactive are the calls of the source. The calls are words filed in the database; no cut-off is given here.

Assay [1] deals with Bacillus subtilis. Put plainly: Antimicrobial activity against Bacillus subtilis at 5 ug/disk by disk assay. Type of assay: functional, organism-based.
Assay [2] relates to Staphylococcus aureus. Put plainly: Antimicrobial activity against Staphylococcus aureus at 1 ug/disk by disk assay. It counts as functional, organism-based.
Assay [3] deals with Staphylococcus aureus. Put plainly: Antimicrobial activity against Staphylococcus aureus at 10 ug/disk by disk assay. Type of assay: functional, organism-based.
For another assay, the system named is A549. Put plainly: Cytotoxicity against human A549 cells. It counts as functional. The conditions noted are these: read-out: ED50 (the source's name).
Another assay deals with HT-29. Put plainly: Cytotoxicity against human HT-29 cells. The note with it: read-out: ED50 (the source's name). Type of assay: functional.
The next assay has as its system MCF7. Put plainly: Cytotoxicity against human MCF7 cells. Type of assay: functional. The note with it: read-out: ED50 (the source's name).
For assay [4], the system named is Bacillus subtilis. Put plainly: Antimicrobial activity against Bacillus subtilis at 1 ug/disk by disk assay. Type of assay: functional, organism-based.

Regarding `Cc1cc(O)c(Cl)c(Oc2c(Cl)c(C)cc(O)c2Cl)c1`, the result in the assay on Bacillus subtilis [1] was Active.
Consider `Cc1cc(O)c(Cl)c(Oc2c(Cl)c(C)cc(O)c2Cl)c1Cl`, for which the outcome in the assay with Staphylococcus aureus [2] was Active.
Regarding `COC1=CC(=O)c2c(cc(OC)c(C(C)C3=C(O)C(=O)c4cc(O)c(C(C)=O)c(O)c4C3=O)c2O)C1=O` (configuration not stated) [KIRSCHSTEININ], the result with Staphylococcus aureus [3] and with Bacillus subtilis [4] was Active. The EC50 with A549 amounted to 3.1 mg/L (≈ 6.1 µM); in the assay on HT-29, 2.7 mg/L (≈ 5.31 µM); in the assay on MCF7 it was 5.2 mg/L (≈ 10.2 µM).
